Results reported in PMC11350758, “Development of Xanthoangelol-Derived Compounds with Membrane-Disrupting Effects against Gram-Positive Bacteria” (Antibiotics, 2024).
≈ marks a conversion by molar mass, not a printed value.

Key:
Format in all cases: cell-based
[1] = system: Enterococcus faecalis ATCC51299, vancomycin-resistant strain; test: MIC, broth microdilution; conditions: Enterococcus faecalis ATCC51299, vancomycin-resistant; read-out: MIC E. f. 51299
Procedure, shortened: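 Broth microdilution per CLSI: 2-fold serial compound dilutions in TSB broth, mixed with an equal volume of bacterial suspension at 10^6 CFU/mL. Incubated 37 °C for 24 h; experiments repeated three times.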

[2] = system: Enterococcus faecalis ATCC29212, vancomycin-susceptible strain; test: MIC, broth microdilution; conditions: Enterococcus faecalis ATCC29212; read-out: MIC E. f. 29212
Procedure, shortened: (§1)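 Micro broth dilution (CLSI): TSB medium, twofold compound series, equal-volume bacterial suspension at 10^6 CFU/mL, incubation 37 °C for 24 h.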

[3] = system: Staphylococcus aureus ATCC31007, penicillin-resistant strain; test: MIC, broth microdilution; conditions: Staphylococcus aureus ATCC31007; read-out: MIC S. a. 31007
Procedure, shortened: as §1

[4] = system: Escherichia coli ATCC25922, penicillin-susceptible strain; test: MIC, broth microdilution; conditions: Escherichia coli ATCC25922; read-out: MIC E. c. 25922
Procedure, shortened: as §1

[5] = system: Staphylococcus epidermidis ATCC12228, erythromycin-susceptible strain; test: MIC, broth microdilution; conditions: Staphylococcus epidermidis ATCC12228; read-out: MIC S. e. 12228
Procedure, shortened: as §1

[6] = system: Pseudomonas aeruginosa ATCC27853, penicillin-susceptible strain; test: MIC, broth microdilution; conditions: Pseudomonas aeruginosa ATCC27853; read-out: MIC P. a. 27853
Procedure, shortened: as §1

[7] = system: Acinetobacter baumannii ATCC19606; test: MIC, broth microdilution; conditions: Acinetobacter baumannii ATCC19606; read-out: MIC A. b. 19606
Procedure, shortened: as §1

[8] = system: Staphylococcus aureus ATCC25923, erythromycin-susceptible strain; test: MIC, broth microdilution; conditions: Staphylococcus aureus ATCC25923; read-out: MIC S. a. 25923
Procedure, shortened: as §1

[9] = system: Bacillus subtilis ATCC9372, penicillin-susceptible strain; test: MIC, broth microdilution; conditions: Bacillus subtilis ATCC9372; read-out: MIC B. s. 9372
Procedure, shortened: as §1

[10] = system: Klebsiella pneumonia ATCC10031; test: MIC, broth microdilution; conditions: Klebsiella pneumoniae; Klebsiella pneumonia ATCC10031; read-out: MIC K. p. 10031
Procedure, shortened: as §1

[11] = In vitro cytotoxicity evaluation; conditions: human, LO2 cells
Experimental: A key component in the development of antimicrobial agents for clinical application is the assessment of their potential toxicity to mammalian cells. To assess the cytotoxic impact, compound 9h was chosen to undergo in vitro testing for its cytotoxic effects on LO2 cells.

[12] = system: Staphylococcus aureus ATCC43300, methicillin-resistant strain; test: microbe, parasite or virus in culture; conditions: ATCC 43300 / MRSA; Staphylococcus aureus ATCC43300 (MRSA); read-out: MIC S. a 43300
Procedure, shortened: as §1

CC(=O)c1c(OCCCNCCCN2CCN(C)CC2)c2c(c3c1OC(C)(CCC=C(C)C)C=C3)OC(C)(CCC=C(C)C)C=C2 (stereo not shown) [Compound 9h, 1-(2,8-Dimethyl-2,8-bis(4-methylpent-3-en-1-yl)-5-(3-((3-(4-methylpiperazin-1-yl)propyl)amino)propoxy)-2H,8H-pyrano [2,3-f]chromen-6-yl)ethan-1-one]
MIC [1]: 8 µg/mL (≈ 12.6 µM) | MIC [2]: 1 µg/mL (≈ 1.58 µM) | MIC [3]: 2 µg/mL (≈ 3.15 µM) | MIC [4]: 4 µg/mL (≈ 6.31 µM) | MIC [5]: 0.5 µg/mL (≈ 0.789 µM) | MIC [6]: 16 µg/mL (≈ 25.2 µM) | MIC [7]: 4 µg/mL (≈ 6.31 µM) | MIC [8]: 2 µg/mL (≈ 3.15 µM) | MIC [9]: 2 µg/mL (≈ 3.15 µM) | MIC [10]: 8 µg/mL (≈ 12.6 µM) | IC50 [11]: 55 µg/mL (≈ 86.8 µM) | viability at 2 μg/mL ([11]; 2 μg/mL, read-out: Cell Viability (%)): 88.8% | viability at 4 μg/mL ([11]; 4 μg/mL, read-out: Cell Viability (%)): 88.6% | viability at 8 μg/mL ([11]; 8 μg/mL, read-out: Cell Viability (%)): 82.6% | viability at 16 μg/mL ([11]; 16 μg/mL, read-out: Cell Viability (%)): 78.4% | viability at 32 μg/mL ([11]; 32 μg/mL, read-out: Cell Viability (%)): 71.4% | viability at 64 μg/mL ([11]; 64 μg/mL, read-out: Cell Viability (%)): 58.1% | viability at 128 μg/mL ([11]; 128 μg/mL, read-out: Cell Viability (%)): 19.7% | MIC [12]: 2 µg/mL (≈ 3.15 µM)
